Source: US20110105393A1, “METHODS FOR PROMOTING STEM CELL PROLIFERATION AND SURVIVAL” (priority 2007, published 2011)

Experiments:
Hes3 = Hes3 protein immuno-staining in fetal NSC cultures; assay type: cell-based, mouse; conditions: 2 day treatment
Procedure: (§1) Cell culture: E13.5 cortical embryonic mouse CNS stem cells were grown as previously described (Johe, et al., Genes Dev 10, 3129-40, 1996). Cells were expanded in serum-free DMEM/F12 medium with N2 supplement and FGF2 (20 ng/ml) for 5 days under 5% oxygen conditions and were re-plated fresh or from frozen stocks at 1,000-10,000 cells per cm^2. FGF2 was included throughout the studies, unless otherwise stated. Adult rat (3-6 months old) or adult mouse (2-4 months old) SVZ NSC cultures were grown in the same medium as the fetal cultures.
Hes3 mRNA is present in fetal NSC cultures under conditions that support their self-renewal but CNTF-induced differentiation (Bonni, A. et al., Science 278, 477-83, 1997; Rajan & McKay, J Neurosci 18, 3620-9, 1998): downregulates Hes3 message (Androutsellis-Theotokis, A. et al., Nature 442, 823-6, 2006). Knockout studies have shown a role of Hes3 in self-renewal (Hatakeyama, J. et al., Development 131, 5539-50, 2004). It was investigated if Hes3 mediates stem cell functions in vitro to assess its use as a functional NSC marker. Fetal (E13.5) cortical tissue was dissociated and magnetic sorting was used to isolate a cell population that expressed AC133, an established marker of NSCs (Uchida, N. et al., Proc Natl Acad Sci USA 97, 14720-5, 2000). […]

Ang-1 = Ang-1 expression in fetal NSC cultures; assay type: cell-based, mouse; conditions: fetal NSCs in culture, treatment 2 days
Procedure: as §1
Fetal NSCs in culture express Ang-1, and treatment (2 days) with Dll4 maintained it whereas CNTF reduced it. Ang-2 expression was maintained under these conditions. […] Ang-2 induced mTOR and STAT3-S727 phosphorylation, unlike Ang-1 (FIG. 2a). Ang-1, however, induced Akt phosphorylation.

Tie-2 receptor = experiment: Tie-2 phosphorylation in fetal neural cells (Western blot); assay type: cell-based, mouse; conditions: exogenous addition, Western blot (FIG. 10a)
Procedure: as §1, with “Culture:” for “culture:”, “(Johe” for “(Johe,”, “3129,” for “3129-40,”, “our experiments,” for “the studies,”, “Neural Stem Cell (NSC)” for “NSC”
(§2) Pharmacological treatments: Unless otherwise stated, we used the following concentrations: Dll4 and Ang2 (in vitro, 500 ng/ml; in vivo 12.5 μg as a single injection), FGF2 (in vitro, 20 ng/ml), JAK inhibitor (in vitro, 200 nM; in vivo, 250 ng as a single injection), insulin (in vitro, 25 μg/ml; in vivo, 40 μg as a single injection), DAPT (1 μM), Fluorogold (0.5 μg). […]
Three characterized Tie-2 receptor antibodies were used to determine if the Tie-2 receptor was expressed in the immature neural precursor cells found in the SVZ of the adult brain. […] Precursor cells that proliferate in vitro can be readily derived from the fetal and adult brain. […] This colony number assay measured the survival of precursor cells that could differentiate into neurons and glia (See, Table 1).

adult rat SVZ NSCs = experiment: Expansion of adult rat SVZ NSC / neural precursor cultures; assay type: cell-based
Procedure: as §1
Pharmacological treatments: Unless otherwise stated, the following concentrations were used: Dll4 and Ang-2 (in vitro, 500 ng/ml; in vivo 12.5 μg as a single injection), FGF2 (in vitro, 20 ng/ml), JAK inhibitor (in vitro, 200 nM; in vivo, 250 ng as a single injection), insulin (in vitro, 25 μg/ml; in vivo, 40 μg as a single injection), DAPT (1 μM), Fluorogold (0.5 μg). For the survival assays, compounds were added daily and Notch ligands every 2 days for the duration of the experiment. For the effects of kinase inhibitors on Notch activation, cells were pre-incubated for 1 h prior to Notch activation.
as §1, with “Culture:” for “culture:”, “(Johe” for “(Johe,”, “3129,” for “3129-40,”, “our experiments,” for “the studies,”, “Neural Stem Cell (NSC)” for “NSC”
as §2

| Substance | Hes3 protein expression (Hes3) | Ang-1 expression (Ang-1) | phosphorylation of Tie-2 (Tie-2 receptor) | generation of adult rat SVZ NSCs in vitro (adult rat SVZ NSCs; 0.5 μg/ml, 5-d (FIG. 2b)) | colony formation and overall cell numbers (adult rat SVZ NSCs; adult rat SVZ NSC cultures treated with Dll4) | increase in the numbers of proliferating cells (adult rat SVZ NSCs; cells from adult SVZ in culture, added to Dll4, insulin and FGF2, p=2.15×10^−5 (FIG. 10b)) [fold] |
| --- | --- | --- | --- | --- | --- | --- |
| Dll4: Notch ligand Delta-like 4; mouse Dll4 (1389-D4) from R&D | maintained | maintained | – | – | – | – |
| Ang-2: human angiopoietin-2 (623-AN) from R&D; antagonist for angiopoietin-1 at Tie2 | – | – | promoted phosphorylation | profoundly increased | significantly increased | 7 |
